Experimental data reported in patent publication US20240358705A1, “COMPOSITIONS AND METHODS FOR TREATMENT OF CANCER” (Board of Supervisors of Louisiana State University and …, priority 2021, published 2024).

Legend:
CD4 T cells [1] = experiment: CD4 T cell activation markers by flow cytometry; assay type: cell-based, mouse; settings: 72 hours
Procedure: (§1) Lymph nodes and spleen were isolated from wild-type C57BL/6N mice. Tissue was mechanically dissociated with the back of a syringe plunger and passed through a […] filter. […] Treated cells were incubated at 37° C., 5% CO2 for the designed study duration. […] After staining, cells were pelleted, resuspended and run by a BD FACSymphony A3 flow cytometer.

[2] = interstitial pulmonary fibrosis; cited from earlier work
CD3 T cells [3] = settings: activated CD3 T cells, 3 μM or 10 μM, 72 hours
Procedure: (§2) Lymph nodes and spleen were isolated from wild-type C57BL/6N mice. Tissue was mechanically dissociated with the back of a syringe plunger and passed through a 70 M filter. […] Treated cells were incubated at 37° C., 5% CO2 for the designed study duration.
Protein concentration was quantified using a BCA protein assay kit (Thermo #A53225). […] of protein diluted with 1×LDS sample buffer (Life Technologies #B0008) and 1×sample reducing agent (Life Technologies #B0009), were denatured at 95° C. for 5 minutes. Denatured T cell protein was resolved using a 10% Bolt Bis-Tris plus protein gel (Thermo #NW00102BOX) and denatured BM-MDSC protein was resolved using an 8% Bolt Bis-Tris plus protein gel (Thermo #NW00082BOX). Gels were transferred to a PVDF membrane (Invitrogen #IB401002) using a seven-minute P3 program on an Invitrogen iBlot dry transfer system. Membranes were then blocked for one hour using 5% nonfat dry milk in TBS-T, washed three times with TBS-T and probed with primary antibody diluted with 5% BSA in TBS-T overnight at 4° C. with gentle rocking. Primary antibody was removed, and membranes were washed three times with TBS-T followed by secondary antibody diluted in TBS-T at room temperature for one hour with gentle rocking. […] Secondary antibodies used were anti-mouse-HRP (Kindle Biosciences #R1005) and anti-rabbit-HRP (Kindle Biosciences #R1006). […]

CD4 T cells [4] = experiment: CD4 T cell differentiation by flow cytometry; assay type: cell-based, mouse; settings: 72 hours; for naïve CD4 T cell compartment, reduction vs DMSO: trend not found to be significant
Procedure: as §1

CD4 T cells [5] = experiment: Annexin/PI apoptosis staining, CD4; assay type: cell-based, mouse; settings: 3 μM or 10 μM, 72 hours, vs DMSO
Procedure: as §2
Treated CD3 T cells were prepared following the in vitro T cell activation method and incubated for 72 hours at 37° C., 5% CO2.

BM-MDSCs = experiment: Arginase-I and iNOS immunoblot in BM-MDSCs; assay type: cell-based, mouse; settings: for arginase-I levels, reduction compared to DMSO / iNOS production, reduction compared to DMSO: 72 hours
Procedure: Bone marrow cells were isolated by flushing the tibia and femurs of wild-type C57BL/6N mice. […] To generate BM-MDSCs, 3×10^6 cells were plated in a 6-well dish and incubated at 37° C., 5% CO2 for 96 hours. For treatment, drugs were administered at either 3 μM or 10 μM concentrations and added to the BM-MDSC cell culture well 24 hours after plating.
Protein concentration was quantified using a BCA protein assay kit (Thermo #A53225). […] of protein diluted with 1×LDS sample buffer (Life Technologies #B0008) and 1×sample reducing agent (Life Technologies #B0009), were denatured at 95° C. for 5 minutes. Denatured T cell protein was resolved using a 10% Bolt Bis-Tris plus protein gel (Thermo #NW00102BOX) and denatured BM-MDSC protein was resolved using an 8% Bolt Bis-Tris plus protein gel (Thermo #NW00082BOX). Gels were transferred to a PVDF membrane (Invitrogen #IB401002) using a seven-minute P3 program on an Invitrogen iBlot dry transfer system. Membranes were then blocked for one hour using 5% nonfat dry milk in TBS-T, washed three times with TBS-T and probed with primary antibody diluted with 5% BSA in TBS-T overnight at 4° C. with gentle rocking. Primary antibody was removed, and membranes were washed three times with TBS-T followed by secondary antibody diluted in TBS-T at room temperature for one hour with gentle rocking. […] Secondary antibodies used were anti-mouse-HRP (Kindle Biosciences #R1005) and anti-rabbit-HRP (Kindle Biosciences #R1006). Analysis was conducted using ImageJ (NIH Bethesda, MD) and normalized to the housekeeping protein β-actin.

CD8 T cells = experiment: CD8 T cell activation markers by flow cytometry; assay type: cell-based, mouse; settings: 72 hours
Procedure: as §1

CD3 T cells [6] = experiment: Cytokine/chemokine quantification (Milliplex); assay type: cell-based, mouse; settings: 72 hours
Procedure: Lymph nodes and spleen were isolated from wild-type C57BL/6N mice. Tissue was mechanically dissociated with the back of a syringe plunger and passed through a […] filter. […] Treated cells were incubated at 37° C., 5% CO2 for the designed study duration. […] Culture supernatant was harvested and clarified by centrifugation at 2000 RPMI for five minutes. […] Cytokines and chemokines were quantified using a Milliplex mouse cytokine/chemokine magnetic bead panel (Millipore […]32) on a Luminex MAGPIX system with undiluted samples following the manufacturer's instructions.

Structure (SMILES): O=c1nc(OC[C@@H]2COCCO2)cc2n1CCc1cc(C#CC3CC3)ccc1-2 [GLPG1205, 9-Cyclopropylethynyl-2-((S)-1-[1,4]dioxan-2-ylmethoxy)-6,7-dihydropyrimido[6,1-a]isoquinolin-4-one]
- CD25 expression, increase vs DMSO (CD4 T cells [1]; 3 μM): 14.28%
- CTLA4 expression, increase vs DMSO (CD4 T cells [1]; 3 μM): 30.31%
- CD25 expression, increase vs DMSO (CD4 T cells [1]; 10 μM): 11.37%
- CTLA4 expression, increase vs DMSO (CD4 T cells [1]; 10 μM): 51.16%
- fibrosis, over the standard of care [2]: non-significant reduction in fibrosis
- GPR84 expression (CD3 T cells [3]): did not significantly affect GPR84 expression
- effector/memory CD4 T cells, increase compared to DMSO control (CD4 T cells [4]; 3 μM): 31.55%
- naïve CD4 T cell compartment, reduction vs DMSO (CD4 T cells [4]; 3 μM): 41.57%
- effector/memory CD4 T cells, increase compared to DMSO control (CD4 T cells [4]; 10 μM): 39.79%
- naïve CD4 T cell compartment, reduction vs DMSO (CD4 T cells [4]; 10 μM): 45.61%
- CD4 apoptosis (Annexin/PI) (CD4 T cells [5]): did not elicit any significant changes
- arginase-I levels, reduction compared to DMSO (BM-MDSCs; 3 μM): 1.79 times
- iNOS production, reduction compared to DMSO (BM-MDSCs; 3 μM): 1.5 times
- arginase-I levels, reduction compared to DMSO (BM-MDSCs; 10 μM): 2.75 times
- iNOS production, reduction compared to DMSO (BM-MDSCs; 10 μM): 1.35 times
- expression of Arginase 1 and iNOS (Western blot) (BM-MDSCs; bone marrow derived murine MDSC, descending concentrations (FIG. 4)): decreases the expression of Arginase 1 protein
- CD25 expression, increase vs DMSO (CD8 T cells; 3 μM): 21%
- CD69 expression, increase vs DMSO (CD8 T cells; 3 μM): 11.24%
- CTLA-4, increase vs DMSO (CD8 T cells; 3 μM): 50.31%
- LAG-3, increase vs DMSO (CD8 T cells; 3 μM): 11.72%
- PD-1, increase vs DMSO (CD8 T cells; 3 μM): 10.02%
- intracellular IFNγ, increase vs DMSO (CD8 T cells; 3 μM): 51.23%
- CD25 expression, increase vs DMSO (CD8 T cells; 10 μM): 25.58%
- CD69 expression, increase vs DMSO (CD8 T cells; 10 μM): 14.59%
- CTLA-4, increase vs DMSO (CD8 T cells; 10 μM): 81.92%
- LAG-3, increase vs DMSO (CD8 T cells; 10 μM): 13.15%
- PD-1, increase vs DMSO (CD8 T cells; 10 μM): 13.91%
- intracellular IFNγ, increase vs DMSO (CD8 T cells; 10 μM): 61.55%
- Eotaxin (CCL11) levels, increase vs DMSO (CD3 T cells [6]; 3 μM): 19.87%
- G-CSF, increase vs DMSO (CD3 T cells [6]; 3 μM): 16.64%
- GM-CSF, increase vs DMSO (CD3 T cells [6]; 3 μM): 32.93%
- IL-1P, increase vs DMSO (CD3 T cells [6]; 3 μM): 20.06%
- IL-2 production, increase vs DMSO (CD3 T cells [6]; 3 μM): 51.36%
- IL-3 secretion, increase vs DMSO (CD3 T cells [6]; 3 μM): 31.91%
- IL-4 secretion, increase vs DMSO (CD3 T cells [6]; 3 μM): 26.55%
- IL-6, increase vs DMSO (CD3 T cells [6]; 3 μM): 30.71%
- IL-9, increase vs DMSO (CD3 T cells [6]; 3 μM): did not elicit any significant changes
- IL-10, increase vs DMSO (CD3 T cells [6]; 3 μM): 52.24%
- IL-12(p40) levels, increase vs DMSO (CD3 T cells [6]; 3 μM): 16.99%
- IL-15 secretion, increase vs DMSO (CD3 T cells [6]; 3 μM): 16.91%
- IP-10 (CXCL10) secretion, increase vs DMSO (CD3 T cells [6]; 3 μM): 28.52%
- KC (CXCL1) concentrations, increase vs DMSO (CD3 T cells [6]; 3 μM): 19.27%
- LIF, increase vs DMSO (CD3 T cells [6]; 3 μM): 41.71%
- TNFα, increase vs DMSO (CD3 T cells [6]; 3 μM): 39.64%
- VEGF, increase vs DMSO (CD3 T cells [6]; 3 μM): 51.99%
- Eotaxin (CCL11) levels, increase vs DMSO (CD3 T cells [6]; 10 μM): 16.57%
- G-CSF, increase vs DMSO (CD3 T cells [6]; 10 μM): 26.52%
- IL-2 production, increase vs DMSO (CD3 T cells [6]; 10 μM): 31.1%
- IL-3 secretion, increase vs DMSO (CD3 T cells [6]; 10 μM): 38.29%
- IL-4 secretion, increase vs DMSO (CD3 T cells [6]; 10 μM): did not elicit an effect
- IL-6, increase vs DMSO (CD3 T cells [6]; 10 μM): 28.38%
- IL-9, increase vs DMSO (CD3 T cells [6]; 10 μM): 19.94%
- IL-10, increase vs DMSO (CD3 T cells [6]; 10 μM): 58.46%
- IL-12(p40) levels, increase vs DMSO (CD3 T cells [6]; 10 μM): 21.77%
- IL-15 secretion, increase vs DMSO (CD3 T cells [6]; 10 μM): 15.05%
- IP-10 (CXCL10) secretion, increase vs DMSO (CD3 T cells [6]; 10 μM): 73.65%
- KC (CXCL1) concentrations, increase vs DMSO (CD3 T cells [6]; 10 μM): 25.62%
- LIF, increase vs DMSO (CD3 T cells [6]; 10 μM): 52.21%
- LIX (CXCL5), increase vs DMSO (CD3 T cells [6]; 10 μM): 20.94%
- MCP-1 (CCL2), increase compared to DMSO control (CD3 T cells [6]; 10 μM): 21.29%
- RANTES (CCL5), increase vs DMSO (CD3 T cells [6]; 10 μM): 29.8%
- TNFα, increase vs DMSO (CD3 T cells [6]; 10 μM): 50.91%
- VEGF, increase vs DMSO (CD3 T cells [6]; 10 μM): 71.18%
